#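 Tested at 5 concentrations; 48 h exposure; 96-well plates; endpoints linearly interpolated, else capped at highest concentration. The concentration for 50% growth inhibition is given as GI50. Definition used: TGI = concentration required for complete inhibition of growth.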
# Columns and labels:
# Assay in all cases: NCI anticancer screen, dose series, 48 h
# SF-295 CNS = system: SF-295 CNS
# TK-10 renal = system: TK-10 renal
# UACC-257 melanoma = system: UACC-257 melanoma
# OVCAR-8 ovarian = system: OVCAR-8 ovarian
# ACHN renal = system: ACHN renal
# LOX IMVI melanoma = system: LOX IMVI melanoma
# KM12 colon = system: KM12 colon
# U251 CNS = system: U251 CNS
# NCI-H23 lung = system: NCI-H23 lung
# MDA-MB-231 breast = system: MDA-MB-231 breast
# NCI-H226 lung = system: NCI-H226 lung
# HOP-62 NSCLC = system: HOP-62 NSCLC
# CAKI-1 renal = system: CAKI-1 renal
# NCI-H460 lung = system: NCI-H460 lung
# NCI-H522 lung = system: NCI-H522 lung
# HT29 colon = system: HT29 colon
# A498 renal = system: A498 renal
# OVCAR-4 ovarian = system: OVCAR-4 ovarian
# A549 NSCLC = system: A549 NSCLC
# HOP-92 NSCLC = system: HOP-92 NSCLC
# DU-145 prostate = system: DU-145 prostate
# UO-31 renal = system: UO-31 renal
# HL-60(TB) leukemia = system: HL-60(TB) leukemia
# PC-3 prostate = system: PC-3 prostate
# SF-539 CNS = system: SF-539 CNS
# OVCAR-3 ovarian = system: OVCAR-3 ovarian
# SNB-19 CNS = system: SNB-19 CNS
# NCI/ADR-RES ovarian = system: NCI/ADR-RES ovarian
# SK-MEL-2 melanoma = system: SK-MEL-2 melanoma
# OVCAR-5 ovarian = system: OVCAR-5 ovarian
# SNB-75 CNS = system: SNB-75 CNS
# SW-620 colon = system: SW-620 colon
# SK-MEL-5 melanoma = system: SK-MEL-5 melanoma
# UACC-62 melanoma = system: UACC-62 melanoma
# BT-549 breast = system: BT-549 breast
# SK-OV-3 ovarian = system: SK-OV-3 ovarian
# MDA-MB-435 = system: MDA-MB-435
# HS 578T breast = system: HS 578T breast
# 786-0 renal = system: 786-0 renal
# COLO 205 colon = system: COLO 205 colon
# SR leukemia = system: SR leukemia
# HCT-116 colon = system: HCT-116 colon
# MCF7 breast = system: MCF7 breast
# HCC-2998 colon = system: HCC-2998 colon
# EKVX NSCLC = system: EKVX NSCLC
# SN12C renal = system: SN12C renal
# MOLT-4 leukemia = system: MOLT-4 leukemia
# IGROV1 ovarian = system: IGROV1 ovarian
# SK-MEL-28 melanoma = system: SK-MEL-28 melanoma
# HCT-15 colon = system: HCT-15 colon
# RXF 393 renal = system: RXF 393 renal
# T-47D breast = system: T-47D breast
# MALME-3M melanoma = system: MALME-3M melanoma
# SF-268 CNS = system: SF-268 CNS
# K-562 leukemia = system: K-562 leukemia
# M14 melanoma = system: M14 melanoma
# CCRF-CEM leukemia = system: CCRF-CEM leukemia
smiles,measurement,setting,value
COc1ccc(-c2cc(-c3ccccc3)nc(SCCCC(=O)NO)n2)cc1OC,GI50,SF-295 CNS,887 nM
same,TGI,SF-295 CNS,2510 nM
same,GI50,TK-10 renal,409 nM
same,TGI,TK-10 renal,8870 nM
same,GI50,UACC-257 melanoma,1430 nM
same,TGI,UACC-257 melanoma,7940 nM
same,GI50,OVCAR-8 ovarian,490 nM
same,TGI,OVCAR-8 ovarian,11900 nM
same,GI50,ACHN renal,410 nM
same,TGI,ACHN renal,1810 nM
same,GI50,LOX IMVI melanoma,1070 nM
same,TGI,LOX IMVI melanoma,2440 nM
same,GI50,KM12 colon,2830 nM
same,TGI,KM12 colon,11000 nM
same,GI50,U251 CNS,1510 nM
same,TGI,U251 CNS,7690 nM
same,GI50,NCI-H23 lung,1570 nM
same,TGI,NCI-H23 lung,4800 nM
same,GI50,MDA-MB-231 breast,1560 nM
same,TGI,MDA-MB-231 breast,8270 nM
same,GI50,NCI-H226 lung,1690 nM
same,TGI,NCI-H226 lung,5540 nM
same,GI50,HOP-62 NSCLC,626 nM
same,TGI,HOP-62 NSCLC,3380 nM
same,GI50,CAKI-1 renal,452 nM
same,TGI,CAKI-1 renal,2830 nM
same,GI50,NCI-H460 lung,621 nM
same,TGI,NCI-H460 lung,9810 nM
same,GI50,NCI-H522 lung,1320 nM
same,TGI,NCI-H522 lung,5360 nM
same,GI50,HT29 colon,2080 nM
same,TGI,HT29 colon,7060 nM
same,GI50,A498 renal,345 nM
same,TGI,A498 renal,1720 nM
same,GI50,OVCAR-4 ovarian,1680 nM
same,TGI,OVCAR-4 ovarian,7760 nM
same,GI50,A549 NSCLC,2060 nM
same,TGI,A549 NSCLC,7050 nM
same,GI50,HOP-92 NSCLC,1140 nM
same,TGI,HOP-92 NSCLC,3990 nM
same,GI50,DU-145 prostate,1410 nM
same,TGI,DU-145 prostate,6850 nM
same,GI50,UO-31 renal,338 nM
same,TGI,UO-31 renal,1480 nM
same,GI50,HL-60(TB) leukemia,3240 nM
same,TGI,HL-60(TB) leukemia,11700 nM
same,GI50,PC-3 prostate,1390 nM
same,TGI,PC-3 prostate,5620 nM
same,GI50,SF-539 CNS,1350 nM
same,TGI,SF-539 CNS,3380 nM
same,GI50,OVCAR-3 ovarian,1320 nM
same,TGI,OVCAR-3 ovarian,5360 nM
same,GI50,SNB-19 CNS,2290 nM
same,TGI,SNB-19 CNS,10900 nM
same,GI50,NCI/ADR-RES ovarian,793 nM
same,TGI,NCI/ADR-RES ovarian,4350 nM
same,GI50,SK-MEL-2 melanoma,1760 nM
same,TGI,SK-MEL-2 melanoma,7390 nM
same,GI50,OVCAR-5 ovarian,1160 nM
same,TGI,OVCAR-5 ovarian,5430 nM
same,GI50,SNB-75 CNS,1090 nM
same,TGI,SNB-75 CNS,4510 nM
same,GI50,SW-620 colon,539 nM
same,TGI,SW-620 colon,11300 nM
same,GI50,SK-MEL-5 melanoma,631 nM
same,TGI,SK-MEL-5 melanoma,2090 nM
same,GI50,UACC-62 melanoma,1060 nM
same,TGI,UACC-62 melanoma,3110 nM
same,GI50,BT-549 breast,3320 nM
same,TGI,BT-549 breast,12400 nM
same,GI50,SK-OV-3 ovarian,1690 nM
same,TGI,SK-OV-3 ovarian,5050 nM
same,GI50,MDA-MB-435,1740 nM
same,TGI,MDA-MB-435,6280 nM
same,GI50,HS 578T breast,1410 nM
same,TGI,HS 578T breast,9440 nM
same,GI50,786-0 renal,1280 nM
same,TGI,786-0 renal,5020 nM
same,GI50,COLO 205 colon,2100 nM
same,TGI,COLO 205 colon,5950 nM
same,GI50,SR leukemia,339 nM
same,TGI,SR leukemia,20400 nM
same,GI50,HCT-116 colon,701 nM
same,TGI,HCT-116 colon,10000 nM
same,GI50,MCF7 breast,2300 nM
same,TGI,MCF7 breast,9630 nM
same,GI50,HCC-2998 colon,1440 nM
same,TGI,HCC-2998 colon,3590 nM
same,GI50,EKVX NSCLC,1180 nM
same,TGI,EKVX NSCLC,8600 nM
same,GI50,SN12C renal,1540 nM
same,TGI,SN12C renal,6150 nM
same,GI50,MOLT-4 leukemia,832 nM
same,TGI,MOLT-4 leukemia,11400 nM
same,GI50,IGROV1 ovarian,1640 nM
same,TGI,IGROV1 ovarian,5050 nM
same,GI50,SK-MEL-28 melanoma,1230 nM
same,TGI,SK-MEL-28 melanoma,3660 nM
same,GI50,HCT-15 colon,406 nM
same,TGI,HCT-15 colon,2620 nM
same,GI50,RXF 393 renal,1010 nM
same,TGI,RXF 393 renal,2780 nM
same,GI50,T-47D breast,824 nM
same,TGI,T-47D breast,9390 nM
same,GI50,MALME-3M melanoma,761 nM
same,TGI,MALME-3M melanoma,5710 nM
same,GI50,SF-268 CNS,2150 nM
same,TGI,SF-268 CNS,5680 nM
same,GI50,K-562 leukemia,812 nM
same,TGI,K-562 leukemia,> 100000 nM
same,GI50,M14 melanoma,1020 nM
same,TGI,M14 melanoma,2820 nM
same,GI50,CCRF-CEM leukemia,398 nM
same,TGI,CCRF-CEM leukemia,11100 nM
